Test results taken from patent US20170137387A1, “PHARMACOLOGICALLY ACTIVE QUINAZOLINEDIONE DERIVATIVES” (ORION CORPORATION, priority 2014, published 2017).

Legend:
[1] = target: T1, human GABAB1 and GABAB2 receptor subunits (Homo sapiens, UniProt O75899+Q9UBS5); assay: Potentiation of GABA dose-response, FLIPR calcium assay; assay type: cell-based; settings: compound at 10 μM; EC50 of GABA divided by EC50 of GABA in the presence of positive allosteric modulator
T1 construct: expressed in transfected cells; host or cells: CHO cells
T1 sequence (Q9UBS5 15-961 limits assumed): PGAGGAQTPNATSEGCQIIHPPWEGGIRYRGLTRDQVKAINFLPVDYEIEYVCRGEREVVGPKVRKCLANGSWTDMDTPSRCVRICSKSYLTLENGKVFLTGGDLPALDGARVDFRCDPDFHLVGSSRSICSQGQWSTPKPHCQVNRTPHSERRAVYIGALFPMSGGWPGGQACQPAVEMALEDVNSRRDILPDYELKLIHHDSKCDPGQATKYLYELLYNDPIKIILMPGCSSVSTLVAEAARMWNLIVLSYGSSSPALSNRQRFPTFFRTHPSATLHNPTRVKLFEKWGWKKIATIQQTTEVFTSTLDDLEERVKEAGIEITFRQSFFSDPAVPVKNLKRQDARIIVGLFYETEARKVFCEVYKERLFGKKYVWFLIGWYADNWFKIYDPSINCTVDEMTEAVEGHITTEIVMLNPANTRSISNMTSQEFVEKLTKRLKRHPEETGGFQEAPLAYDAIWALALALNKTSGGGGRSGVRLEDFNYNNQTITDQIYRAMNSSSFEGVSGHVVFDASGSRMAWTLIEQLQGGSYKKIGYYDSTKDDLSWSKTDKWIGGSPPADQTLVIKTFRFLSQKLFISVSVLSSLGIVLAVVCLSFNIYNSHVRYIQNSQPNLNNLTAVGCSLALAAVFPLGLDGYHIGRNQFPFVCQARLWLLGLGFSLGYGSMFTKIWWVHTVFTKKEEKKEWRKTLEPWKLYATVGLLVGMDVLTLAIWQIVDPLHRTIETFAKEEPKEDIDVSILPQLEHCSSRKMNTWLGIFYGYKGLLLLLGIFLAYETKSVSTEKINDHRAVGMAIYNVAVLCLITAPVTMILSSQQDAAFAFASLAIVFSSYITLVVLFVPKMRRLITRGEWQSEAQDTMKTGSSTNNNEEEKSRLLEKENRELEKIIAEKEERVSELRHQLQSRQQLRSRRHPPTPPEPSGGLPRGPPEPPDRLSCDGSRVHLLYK
T1 sequence (O75899 42-941): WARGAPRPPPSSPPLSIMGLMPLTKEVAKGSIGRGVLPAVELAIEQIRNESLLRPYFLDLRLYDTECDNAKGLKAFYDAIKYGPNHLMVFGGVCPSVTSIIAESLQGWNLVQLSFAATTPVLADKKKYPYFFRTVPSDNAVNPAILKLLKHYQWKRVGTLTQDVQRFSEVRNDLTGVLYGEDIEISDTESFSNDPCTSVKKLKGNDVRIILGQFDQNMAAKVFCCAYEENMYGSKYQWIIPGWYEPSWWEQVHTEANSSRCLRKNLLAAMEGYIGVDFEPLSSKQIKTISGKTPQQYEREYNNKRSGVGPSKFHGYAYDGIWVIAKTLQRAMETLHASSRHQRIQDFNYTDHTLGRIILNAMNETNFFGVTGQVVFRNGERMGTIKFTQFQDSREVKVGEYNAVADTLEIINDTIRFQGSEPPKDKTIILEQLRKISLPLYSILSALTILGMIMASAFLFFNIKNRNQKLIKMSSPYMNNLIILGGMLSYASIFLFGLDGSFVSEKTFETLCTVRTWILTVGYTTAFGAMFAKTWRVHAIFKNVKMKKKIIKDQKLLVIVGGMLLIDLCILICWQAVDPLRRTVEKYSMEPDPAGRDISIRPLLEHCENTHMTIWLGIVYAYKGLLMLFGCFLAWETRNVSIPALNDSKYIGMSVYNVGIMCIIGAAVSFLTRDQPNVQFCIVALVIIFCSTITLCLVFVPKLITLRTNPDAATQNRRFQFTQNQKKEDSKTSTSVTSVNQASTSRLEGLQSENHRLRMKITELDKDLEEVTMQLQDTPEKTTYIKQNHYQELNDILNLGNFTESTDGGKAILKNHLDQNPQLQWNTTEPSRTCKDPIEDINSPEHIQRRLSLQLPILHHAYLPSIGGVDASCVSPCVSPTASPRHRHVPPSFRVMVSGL
Experimental: (§1) CHO cells expressing the human GABAB1 and GABAB2 receptor subunits co-expressing promiscuous Galpha16 proteins to force couple the receptor to the intracellular calcium signalling pathway were used to study GABAB pharmacology in vitro. The cells were maintained at 37° C. in a 5% CO2 95% air atmosphere in HAM F-12 medium supplemented with 10% foetal bovine serum and selection antibiotics.
(§2) The day before the experiment the cells were detached and plated into black-walled clear bottom 384-well plates at a cell density of 20 000 cells per well. The growth medium was removed and the cells were incubated with FLIPR Calcium 5 Assay reagent (Molecular Devices, CA, USA) diluted 1:1 in Probenecid-Ringer for 1 h at 37° C. in dark. Probenecid-Ringer buffer consisted of 150 mM NaCl, 3 mM KCl, 1.2 mM MgCl2, 1 mM CaCl2, 5 mM glucose, 20 mM 2-(4-(2-hydroxyethyl)piperazin-1-yl)ethanesulfonic acid (HEPES), and 2.5 mM Probenecid (pH 7.4 adjusted with 1.0 M NaOH and osmolarity adjusted to […]). Compounds were dissolved in Probenecid-Ringer. […] The samples were excited at 470-495 nm and emission was detected at 515-575 nm. All experiments were performed at 37° C.
(§3) Baseline fluorescence minimum was subtracted from maximum for the calculation of agonism and positive allosteric modulator pharmacology. Both in the agonism mode and in the allosteric mode, the efficacy was related to the intrinsic activity (IA) of the endogenous agonist GABA at 30 μM (positive allosteric modulator efficacy at 10 μM/GABA efficacy or agonism efficacy at 30 μM/GABA efficacy). To determine potentiation of GABA dose-response, the compounds, at a concentration of 10 μM diluted in Probenecid-Ringer, were added by FLIPR tetra followed by addition of GABA (diluted in water in the concentration range 0.123-10 μM). The EC50 values were determined using a four-parameter logistic fit (model 205 in ActivityBase XE). The EC50 value of GABA was divided with the EC50 value of GABA in the presence of positive allosteric modulator to determine potentiation of GABA dose-response EC50 value.

[2] = target: T1, human GABAB1 and GABAB2 receptor subunits; assay: Agonism and positive allosteric modulator pharmacology in vitro, two-addition FLIPR calcium assay; assay type: cell-based; settings: CHO cells co-expressing Galpha16; for IA (GABAB agonism): agonism efficacy at 30 μM / GABA efficacy at 30 μM; for IA (GABAB positive allosteric modulation): positive allosteric modulator efficacy at 10 μM (with EC10.5 GABA) / GABA efficacy at 30 μM
Experimental: as §1, §2
A two-addition protocol was used to determine agonism and positive allosteric modulator pharmacology in the same assay using a kinetic read out. Agonism pharmacology of compounds was studied in the first addition in the concentration range 0.123-30 μM in quadruplicate at each concentration. In the second addition, a low (EC10.5) concentration of GABA was applied to detect the positive allosteric modulator pharmacology of the compounds to be studied. The EC10.5 concentration was determined from the GABA EC50 value using the formula ECF≈(F/(100-F))^1/H·EC50, wherein F is the fraction of full response and H is Hill slope.
as §3

Row | Potentiation of GABA (fold) [1] [fold] | IA (GABAB agonism) [2] | IA (GABAB positive allosteric modulation) [2] | Compound
1 | 1.7 | 0.08 | 0.48 | CC(C)(C)C(=O)Cn1c(=O)n(Cc2ccc(Br)cc2)c(=O)c2ccc(F)cc21 [Example 26, 3-(4-Bromobenzyl)-1-(3,3-dimethyl-2-oxobutyl)-7-fluoroquinazoline-2,4(1H,3H)-dione]
2 | 3.3 | 0.11 | 0.44 | CCn1c(=O)n(Cc2ccc(Br)cc2)c(=O)c2ccc(F)cc21 [Example 87, 3-(4-Bromobenzyl)-1-ethyl-7-fluoroquinazoline-2,4(1H,3H)-dione]
3 | 4.8 | 0.23 | 0.45 | Cn1c(=O)n(Cc2ccc(Br)cc2)c(=O)c2ccc(F)cc21 [Example 33, 3-(4-Bromobenzyl)-7-fluoro-1-methylquinazoline-2,4(1H,3H)-dione]
4 | 42.6 | 0.19 | 0.89 | CC(C)(O)Cn1c(=O)n(Cc2ccc(Cl)cc2)c(=O)c2cc(Cl)cc(F)c21 [Example 131, 6-Chloro-3-(4-chlorobenzyl)-8-fluoro-1-(2-hydroxy-2-methylpropyl)quinazoline-2,4(1H,3H)-dione]
5 | 1.6 | 0.06 | 0.43 | Cn1c(=O)n(Cc2ccc(Br)cc2)c(=O)c2ccc(Cl)cc21 [Example 18, 3-(4-Bromobenzyl)-7-chloro-1-methylquinazoline-2,4(1H,3H)-dione]
6 | 9.5 | 0.02 | 0.71 | CC1(C)Cn2c(=O)n(Cc3ccc(Cl)cc3)c(=O)c3ccc(Cl)c(c32)O1 [Example 67, 10-Chloro-6-(4-chlorobenzyl)-2,2-dimethyl-2H-[1,4]oxazino[2,3,4-ij]quinazoline-5,7(3H,6H)-dione]
7 | 3.5 | 0.13 | 0.21 | CC(C)n1c(=O)n(Cc2ccc(Br)cc2)c(=O)c2ccc(F)cc21 [Example 38, 3-(4-Bromobenzyl)-7-fluoro-1-isopropylquinazoline-2,4(1H,3H)-dione]
8 | 22 | 0.04 | 0.73 | CC1(Cn2c(=O)n(Cc3ccc(Br)cc3)c(=O)c3cc(F)c(Cl)cc32)COC1 [Example 50, 3-(4-Bromobenzyl)-7-chloro-6-fluoro-1-((3-methyloxetan-3-yl)methyl)quinazoline-2,4(1H,3H)-dione]
9 | 24.5 | 0.18 | 0.71 | C[C@@H](O)Cn1c(=O)n(Cc2ccc(Cl)cc2)c(=O)c2ccc(Cl)c(F)c21 [Example 82, (R)-7-Chloro-3-(4-chlorobenzyl)-8-fluoro-1-(2-hydroxypropyl)quinazoline-2,4(1H,3H)-dione]
10 | 89 | 0.20 | 0.85 | CC(C)(O)Cn1c(=O)n(Cc2ccc(Br)cc2)c(=O)c2cc(F)c(F)c(F)c21 [Example 60, 3-(4-Bromobenzyl)-6,7,8-trifluoro-1-(2-hydroxy-2-methylpropyl)quinazoline-2,4(1H,3H)-dione]
11 | 2.8 | 0.10 | 0.47 | CC(C)(O)Cn1c(=O)n(Cc2ccc(Cl)c(Oc3ccccc3)c2)c(=O)c2ccc(F)cc21 [Example 41, 3-(4-Chloro-3-phenoxybenzyl)-7-fluoro-1-(2-hydroxy-2-methylpropyl)quinazoline-2,4(1H,3H)-dione]
12 | 11 | 0.14 | 0.65 | CC(C)(O)Cn1c(=O)n(Cc2ccc(Cl)c(Cl)c2)c(=O)c2ccc(C(F)(F)F)cc21 [Example 2, 3-(3,4-Dichlorobenzyl)-1-(2-hydroxy-2-methylpropyl)-7-(trifluoromethyl)quinazoline-2,4(1H,3H)-dione]
13 | 31 | 0.28 | 0.61 | CC(C)(O)Cn1c(=O)n(Cc2ccc(Br)cc2)c(=O)c2cc(F)c(Cl)cc21 [Example 49, 3-(4-Bromobenzyl)-7-chloro-6-fluoro-1-(2-hydroxy-2-methylpropyl)quinazoline-2,4(1H,3H)-dione]

Row | Compound | Potentiation of GABA (fold) [1] [fold] | IA (GABAB agonism) [2] | IA (GABAB positive allosteric modulation) [2]
14 | Cn1c(=O)n(Cc2ccc([N+](=O)[O-])cc2)c(=O)c2ccc(F)cc21 [Example 40, 7-Fluoro-1-methyl-3-(4-nitrobenzyl)quinazoline-2,4(1H,3H)-dione] | 1.5 | 0.04 | 0.26
